Source: ChEMBL document CHEMBL1156829 (Proc Natl Acad Sci U S A, 2008)

Assays:
Plasmodium falciparum [1] = assay: NOVARTIS: Inhibition of Plasmodium falciparum 3D7 (drug-susceptible) proliferation in erythrocyte-based infection assay; format: functional, organism-based; settings: Plasmodium falciparum, 3D7
Plasmodium falciparum [2] = assay: NOVARTIS: Inhibition of Plasmodium falciparum W2 (drug-resistant) proliferation in erythrocyte-based infection assay; format: functional, organism-based; settings: Plasmodium falciparum, W2; read-out: EC50
[3] = NOVARTIS: Cytotoxicity against human hepatocellular carcinoma cell line (Huh7); format: toxicity, cell-based, Huh-7; settings: Huh7 cells (hepatocellular carcinoma cell line)

Row | Compound | EC50 (Plasmodium falciparum [1]) [nM] | EC50 (Plasmodium falciparum [2]) [nM] | CC50 [3] [nM]
1 | COc1ccc(C(=O)C[n+]2ccc(N)c(C)c2C)cc1 | 438 | > 665 | > 10000
2 | CCN(CC)CCN(Cc1cc2cc(OC)ccc2[nH]c1=O)C(=S)Nc1ccc(F)cc1 | 2080 | 3320 | 51400
3 | CC(=O)Nc1cc(C(F)(F)F)cc(C(F)(F)F)c1 | 1310 | 711 | > 10000
4 | CCCCCCCn1c(=N)n(CC(O)c2ccc(Cl)c(Cl)c2)c2ccccc21 (stereo not given) | 204 | 33.5 | 6500
5 | COc1ccc(C(OCC(=O)N2CCN(Cc3ccccc3)CC2)c2ccc(F)cc2)cn1 (stereo not given) | 733 | 187 | > 10000
6 | CCCCS(=O)(=O)N(C)CCCNc1ccnc2cc(Cl)ccc12 | 68.8 | < 9.18 | > 10000
7 | CCCCCCN(C(=O)Nc1cccc(C#N)c1)C(CC)c1nc2ccccc2c(=O)n1CCC(=O)OC (stereo not given) | 979 | 1070 | > 10000
8 | CCOC(=O)C1CCCN(C(=O)c2c(C)oc3c2C(=O)c2ccccc2C3=O)C1 (stereo not given) | 171 | 163 | 20400
9 | CN(C)c1cc(NC(=O)Nc2ccccc2)c2ccccc2n1 | 148 | 332 | 6780
10 | c1ccc(/C2=N/c3ccccc3/N=C(/c3ccccc3)c3ccccc32)cc1 | 678 | 770 | > 100000
11 | Nc1noc2cccc(OC3CCNCC3)c12 | 1030 | < 24.5 | > 10000
12 | Cc1ccccc1Cc1c(C)nc2c(C#N)c(C)nn2c1C | 282 | 273 | > 100000
13 | CCOC(=O)C1(Cc2ccc(OC)cc2)CCN(C(=O)c2scc3c2OCCO3)CC1 | 264 | 199 | > 100000
14 | CN(C)C(=O)O[n+]1ccc(N(C)C)cc1 | > 990 | > 897 | > 10000
15 | O=C(COC(=O)c1ccc2c(c1)C(=O)N(c1ccc3ccccc3c1)C2=O)c1ccc(Br)cc1 | > 919 | > 1250 | > 10000
16 | CCCN(CCC)S(=O)(=O)c1cc(Br)cc2c1N(C(=O)C1CC1)CC2 | 410 | 736 | > 100000
17 | CCN(CC)CCN1C(=O)c2ccccc2NC1c1ccc(Br)cc1 (stereo not given) | 218 | 67.1 | 47800
18 | Cc1ccc(CNC(=O)C2CNCC2c2ccc(C(F)(F)F)cc2)cc1 (stereo not given) | 243 | 121 | > 10000
19 | Cc1ccc(C(C(=O)NCc2ccccc2)N(C(=O)c2snc(C(N)=O)c2N)c2ccccc2)o1 (stereo not given) | 1230 | > 755 | > 10000
20 | O=C(NCCCCNc1ccnc2cc(Cl)ccc12)C(c1ccccc1)c1ccccc1 | 730 | 440 | > 8210
21 | CCCn1c(SCC(=O)Nc2ccccc2Cl)nc2c1c(=O)n(C)c(=O)n2C | > 1250 | 1320 | > 10000
22 | CCCSc1nc(N)c2c3c(sc2n1)CN(CCC)CC3 | 1420 | 1230 | > 100000
23 | CCOc1cccc2oc(=O)c(C(=O)Nc3cc(C(C)(C)C)on3)cc12 | > 11700 | > 4620 | > 100000
24 | CCc1ccc(N(C(=O)CCN2CCc3ccccc32)C(C(=O)NCc2ccccc2)c2ccc(OC)c(OC)c2)cc1 (stereo not given) | 5080 | 4450 | > 100000

Row | Compound | EC50 (Plasmodium falciparum [1]) [nM] | EC50 (Plasmodium falciparum [2]) [nM] | CC50 [3] [nM]
25 | O=C(O)CCCNC(=O)C(O)(c1ccccc1)c1ccccc1 | > 12500 | 1330 | > 100000
26 | CCC(=O)Oc1ccccc1-c1nc2ccccn2c1NC(C)(C)CC(C)(C)C | 743 | 34.9 | 1650
27 | CCCCCc1nnc(NC(=O)c2ccc(-c3ccc(OC)cc3)cc2)s1 | 457 | 26.7 | > 10000
28 | CCC(c1nc2ccccc2c(=O)n1-c1cccc(Cl)c1)N(CCC(C)C)C(=O)COCc1ccccc1 (stereo not given) | 1190 | > 1140 | 3910
29 | O=C(c1ccc2nc(N3CCCCC3)sc2c1)N1CCN(Cc2ccc3c(c2)OCO3)CC1 | 407 | 298 | > 100000
30 | Cc1ccc(C2C3=C(CC(C)(C)CC3=O)N(Cc3ccc4c(c3)OCO4)C3=C2C(=O)CC(C)(C)C3)cc1 | 3750 | 1770 | > 100000
31 | Oc1c2c(nc3cc(-c4ccc(-c5ccccc5)cc4)nn13)CCCC2 | 1140 | 1020 | > 73800
32 | COc1cccc(OC)c1C(=O)NCCCCNc1ccnc2cc(Cl)ccc12 | 449 | 198 | > 12200
33 | COCCNC(=O)c1ccc(OC2CCN(CC(c3ccccc3)c3ccccc3)CC2)c(OC)c1 | 303 | 74.9 | > 76700
34 | COc1cncc(-c2cncc(-c3ccc(C)cc3)n2)c1 | 94.9 | 85.2 | > 100000
35 | C=CCNC(=O)c1ccc2c(c1)N=C(CC(C)c1ccccc1)N(CCCN1CCCC1=O)C2 (stereo not given) | > 1250 | 26.7 | > 10000
36 | COc1cccc(-c2ccc(O)c(CNCc3ccccc3OC)c2)n1 | 1090 | 939 | > 10000
37 | CCc1ccc(C(=O)N2CCCn3cccc3C2c2ccc(C(C)(C)C)cc2)cc1 (stereo not given) | > 1250 | 1160 | > 10000
38 | c1ccc(C2CC(C3CC(c4ccccc4)OC(c4ccccc4)C3)CC(c3ccccc3)O2)cc1 (stereo not given) | 1240 | 394 | > 10000
39 | CN1CCN(c2nc(NN=Cc3ccc(O)cc3)nc(Nc3ccc([N+](=O)[O-])cc3)n2)CC1 | > 1250 | 1340 | > 10000
40 | COc1cc(C=C(C#N)c2nc3ccccc3[nH]2)ccc1OCc1ccc(C)cc1 | 684 | 328 | > 100000
41 | CCN1/C(=C/c2sc3cc(OC)c(OC)cc3[n+]2CC)C=Cc2ccccc21 | 136 | 104 | > 10000
42 | Oc1ccccc1C=NNc1nnc2c3ccccc3n(Cc3ccccc3)c2n1 | > 832 | > 1720 | > 10000
43 | C(=NNc1nc2ccccc2[nH]1)c1ccccc1 | 587 | 1190 | > 100000
44 | CC(C)CNC(=O)c1cnc(NCCCN2CCCCC2C)nc1NCC1CCCCC1 (stereo not given) | 434 | 1170 | > 10000
45 | CCOc1ccc2nc(C)cc(Nc3ccc(C)c(Cl)c3)c2c1 | 240 | 348 | 13600
46 | O=C(Nc1c2ccccc2nc2ccccc12)c1cc(Cl)ccc1O | 1130 | 484 | > 100000
47 | COC(=O)CNC(c1ccccc1)c1cc(Br)ccc1NC(=O)C(Cc1ccccc1)NC(=O)OCc1ccccc1 (stereo not given) | 4080 | 1280 | > 100000
48 | Oc1ccc(-c2cncc(NCc3ccccc3)n2)cc1 | 1750 | > 1250 | > 10000

Row | Compound | EC50 (Plasmodium falciparum [1]) [nM] | EC50 (Plasmodium falciparum [2]) [nM] | CC50 [3] [nM]
49 | CCCCN(C)C(=O)CSc1nc(NCc2ccccc2)c2ccccc2n1 | > 1650 | 361 | > 10000
50 | C=CCc1c(C)nc2ccc(Br)cc2c1O | 1600 | 1780 | > 100000
51 | CCN(CC)CCCNc1nc2cc(OC)c(OC)cc2c2nc(-c3ccccc3)nn12 | 3250 | 1170 | > 100000
52 | O=C(NCCCCCCNC(=O)Nc1ccc(C2=NCCCN2)cc1)Nc1ccc(C2=NCCCN2)cc1 | 108 | < 3.28 | > 10000
53 | COc1ccc(C2CC(=O)C3=C(C2)NC(=O)CC3c2ccc(C(F)(F)F)cc2)cc1OC (stereo not given) | 182 | 123 | > 100000
54 | c1cc(-c2cccc3cccnc23)nc(N2CCN(CCN3CCCC3)CC2)c1 | 58.4 | 103 | 70100
55 | O=C(NN=Cc1ccc(O)cc1O)c1ccncc1 | 4750 | 1880 | > 100000
56 | CCOc1ccc(-c2nc(NC(=O)Cc3cccc(OC)c3)sc2C)cc1 | 273 | 417 | > 10000
57 | O=C(Nc1ccc(-c2nc3cc(NC(=O)C(c4ccccc4)c4ccccc4)ccc3[nH]2)cc1)C(c1ccccc1)c1ccccc1 | 4450 | 3680 | > 100000
58 | CCC(C)(C)c1ccc(OCCCC[n+]2ccc(C)cc2)c(C(C)(C)CC)c1 | 532 | 193 | 12000
59 | O=C(/C=C/c1ccc(Br)cc1)NC(=O)c1ccccc1O | > 1250 | 1090 | > 10000
60 | C=CCSc1nc2sc3c(c2c(=O)n1-c1ccccc1)CCN(CCC)C3 | 634 | 847 | > 100000
61 | O=C(NCc1ccccc1)c1cnc(NCCCn2ccnc2)nc1NCCc1ccccc1 | 205 | 320 | 12800
62 | CCOC(=O)c1c(CNc2ccncc2)n(C)c2cc(Br)c(O)cc12 | 315 | 333 | > 10000
63 | CN(Cc1ccccc1)c1nc2c(c(=O)[nH]c(=O)n2C)n1CCCSc1ncccn1 | > 12500 | 5190 | > 100000
64 | c1ccc(C2=NN(c3ccccc3)C(c3ccc4c(c3)OCO4)N2c2ccc(N3CCOCC3)cc2)cc1 (stereo not given) | 680 | 1780 | > 10000
65 | c1ccc2nc3c(nnc4ccccc43)nc2c1 | 1100 | 996 | 28500
66 | CC(C)(C)c1ccc(Cn2nnc3c(O)nc(C4CCN(C(=O)c5ccccc5)CC4)nc32)cc1 | 242 | 852 | > 100000
67 | Nc1nc(N)c2cc(S(=O)(=O)N3CCCCC3)ccc2n1 | 20.2 | > 1250 | 2670
68 | Sc1nc2ccc3nsnc3c2[nH]1 | 713 | 537 | > 10000
69 | CC(C)Sc1nc2c(c(=O)n1Cc1ccco1)C1(CCCCC1)Cc1ccccc1-2 | 9560 | > 12500 | > 100000
70 | COc1ccc(/C=C/c2nc(=O)c3ccccc3o2)cc1 | 1240 | 480 | > 10000
